Data on 17 molecules can be found in patent US8901111B2, “Aryl-substituted heterocyclic urea modulators of fatty acid amide hydrolase” (Janssen Pharmaceutica NV, priority 2009, dated 2014).

One experiment has as its target T1, FAAH (Homo sapiens, UniProt O00519).
T1 sequence (O00519 1-579): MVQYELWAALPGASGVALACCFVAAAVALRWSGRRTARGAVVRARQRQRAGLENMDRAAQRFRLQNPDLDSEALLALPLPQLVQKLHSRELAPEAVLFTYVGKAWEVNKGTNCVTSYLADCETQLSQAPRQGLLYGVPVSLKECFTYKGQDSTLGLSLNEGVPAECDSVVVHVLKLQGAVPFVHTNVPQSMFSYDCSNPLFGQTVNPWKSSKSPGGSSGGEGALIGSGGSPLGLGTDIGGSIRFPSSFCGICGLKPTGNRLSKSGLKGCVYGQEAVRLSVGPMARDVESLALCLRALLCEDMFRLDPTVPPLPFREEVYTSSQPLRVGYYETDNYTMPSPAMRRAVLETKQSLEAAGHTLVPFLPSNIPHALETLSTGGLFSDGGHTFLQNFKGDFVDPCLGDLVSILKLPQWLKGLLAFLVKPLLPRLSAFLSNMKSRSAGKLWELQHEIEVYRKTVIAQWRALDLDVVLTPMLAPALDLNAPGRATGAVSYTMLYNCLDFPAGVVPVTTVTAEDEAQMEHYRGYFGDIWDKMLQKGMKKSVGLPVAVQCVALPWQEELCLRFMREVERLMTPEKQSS
Kind of experiment: Assay Method 1: FAAH assay, 3H-anandamide hydrolysis in homogenate of cells transfected with human FAAH. Format: biochemical. Details: expressed in transfected cells; crude homogenate (T84 cell pellets named as alternative). As to conditions: cell homogenate, 3H-AEA 80 nM, 1 h at rt, average of results. As to the method:
A. Transfection of Cells with Human FAAH
(§1) A 10-cm tissue culture dish with a confluent monolayer of SK-N-MC cells was split 2 days (d) prior to transfection. Using sterile technique, the media was removed and the cells were detached from the dish by the addition of trypsin. One fifth of the cells were then placed onto a new 10-cm dish. Cells were grown in a 37° C. incubator with 5% CO2 in Minimal Essential Media Eagle with 10% Fetal Bovine Serum. After 2 d, cells were approximately 80% confluent. These cells were removed from the dish with trypsin and pelleted in a clinical centrifuge. The pellet was re-suspended in 400 μL complete media and transferred to an electroporation cuvette with a 0.4 cm gap between the electrodes. Supercoiled human FAAH cDNA (1 μg) was added to the cells and mixed. The voltage for the electroporation was set at 0.25 kV, and the capacitance was set at 960 After electroporation, the cells were diluted into complete media (10 mL) and plated onto four 10-cm dishes. Because of the variability in the efficiency of electroporation, four different concentrations of cells were plated. The ratios used were 1:20, 1:10, and 1:5, with the remainder of the cells being added to the fourth dish. The cells were allowed to recover for 24 h before adding the selection media (complete media with 600 μg/mL G418). After 10 d, dishes were analyzed for surviving colonies of cells. Dishes with well-isolated colonies were used. Cells from individual colonies were isolated and tested.
(§2) T84 frozen cell pellets or transfected SK-N-MC cells (contents of 1×15 cm culture dishes) were homogenized in 50 mL of FAAH assay buffer (125 mM Tris, 1 mM EDTA, 0.2% Glycerol, 0.02% Triton X-100, 0.4 mM Hepes, pH 9). The assay mixture consisted of 50 μL of the cell homogenate, 10 μL of the test compound, and 40 μL of anandamide [1-^3H-ethanolamine] (^3H-AEA, Perkin-Elmer, 10.3 Ci/mmol), which was added last, for a final tracer concentration of 80 nM. The reaction mixture was incubated at rt for 1 h. During the incubation, 96-well Multiscreen filter plates (catalog number MAFCNOB50; Millipore, Bedford, Mass., USA) were loaded with 25 μL of activated charcoal (Multiscreen column loader, catalog number MACL09625, Millipore) and washed once with 100 μL of MeOH. Also during the incubation, 96-well DYNEX MicroLite plates (catalog number NL510410) were loaded with 100 μL of MicroScint40 (catalog number 6013641, Packard Bioscience, Meriden, Conn., USA). After the 1 h incubation, 60 μL of the reaction mixture were transferred to the charcoal plates, which were then assembled on top of the DYNEX plates using Centrifuge Alignment Frames (catalog number MACF09604, Millipore). The unbound labeled ethanolamine was centrifuged through to the bottom plate (5 min at 2000 rpm), which was preloaded with the scintillant, as described above. The plates were sealed and left at rt for 1 h before counting on a Hewlett Packard TopCount.
(§3) Results for compounds tested in these assays are summarized in Table 1, as an average of results obtained. Compounds were tested in the free base or trifluoroacetic acid salt form. Compounds tested in the trifluoroacetic acid salt form are indicated as such by a “*” designation after the example number. Where activity is shown as greater than (>) a particular value, the value is the solubility limit of the compound in the assay medium or the highest concentration tested in the assay.

In the next experiment the target is T2, rat FAAH (Rattus norvegicus, UniProt P97612).
T2 construct: expressed in transfected cells; crude homogenate
T2 sequence (P97612 1-579): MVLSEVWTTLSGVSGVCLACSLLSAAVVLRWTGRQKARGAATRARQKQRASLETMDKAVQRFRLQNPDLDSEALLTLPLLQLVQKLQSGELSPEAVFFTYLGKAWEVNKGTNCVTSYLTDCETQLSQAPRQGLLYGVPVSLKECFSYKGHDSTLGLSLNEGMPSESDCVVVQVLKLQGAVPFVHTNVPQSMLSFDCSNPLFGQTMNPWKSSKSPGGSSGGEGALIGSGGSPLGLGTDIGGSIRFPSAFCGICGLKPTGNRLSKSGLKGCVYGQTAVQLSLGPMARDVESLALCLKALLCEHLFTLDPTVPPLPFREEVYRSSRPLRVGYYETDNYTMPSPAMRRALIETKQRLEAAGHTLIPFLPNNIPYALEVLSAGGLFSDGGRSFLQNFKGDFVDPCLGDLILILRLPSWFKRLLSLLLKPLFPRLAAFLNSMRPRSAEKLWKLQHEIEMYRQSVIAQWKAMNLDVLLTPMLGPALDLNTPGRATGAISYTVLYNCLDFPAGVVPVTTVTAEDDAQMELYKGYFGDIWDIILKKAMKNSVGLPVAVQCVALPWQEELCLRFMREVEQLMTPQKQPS
Nature of the experiment: Assay Method 2: FAAH assay, 3H-anandamide hydrolysis in homogenate of cells transfected with rat FAAH. Format: biochemical. As to conditions: cell homogenate, 3H-AEA 80 nM, 1 h at rt, average of results. As to the method:
A. Transfection of Cells with Rat FAAH
as §1, with “rat” for “human”, “960 μF.” for “960”
as §2, §3

In the case of `O=C(Nc1cccnc1)N1CC(COc2cccc(OCc3ccccc3)c2)C1` [Example 23, 3-(3-Benzyloxy-phenoxymethyl)-azetidine-1-carboxylic acid pyridin-3-ylamide], the concentration for half-maximal inhibition (IC50) at FAAH came to 300 nM; at rat FAAH it was 940 nM.
For `O=C(Nc1cccnc1)N1CC(CCOc2cccc(Oc3ccc(Cl)cc3)c2)C1` [Example 44, 3-{2-[3-(4-Chloro-phenoxy)-phenoxy]-ethyl}-azetidine-1-carboxylic acid pyridin-3-ylamide], in that order: 13 nM and 27 nM.
For `O=C(Nc1cccnc1)N1CC(CCOc2cccc(Oc3ccccc3)c2)C1` [Example 32, 3-[2-(3-Phenoxy-phenoxy)-ethyl]-azetidine-1-carboxylic acid pyridin-3-ylamide], in that order: 360 nM and 430 nM.
Regarding `O=C(Nc1cnccc1Cl)N1CCC(Cc2cccc(Oc3ccc(F)cc3)c2)C1` (stereo not shown) [Example 75, 3-[3-(4-Fluoro-phenoxy)-benzyl]-pyrrolidine-1-carboxylic acid (4-chloro-pyridin-3-yl)-amide], the half-maximal inhibitory concentration (IC50) came out at 45 nM against FAAH and 30 nM against rat FAAH.
For `O=C(Nc1cccnc1)N1CC(COc2ccc(Oc3ccccc3)cc2)C1` [Example 16, 3-(4-Phenoxy-phenoxymethyl)-azetidine-1-carboxylic acid pyridin-3-ylamide], in that order: more than 10000 nM and more than 10000 nM.
For `O=C(Nc1cnccc1Cl)N1CC(CCOc2cccc(Oc3ccc(Cl)cc3)c2)C1` [Example 28, 3-{2-[3-(4-Chloro-phenoxy)-phenoxy]-ethyl}-azetidine-1-carboxylic acid (4-chloro-pyridin-3-yl)-amide], in that order: 1 nM and 1 nM.
For `O=C(Nc1cccnc1)N1CCC(CCc2ccc3c(c2)OC(F)(F)O3)C1` (stereo not shown) [Example 77, 3-[2-(2,2-Difluoro-benzo[1,3]dioxol-5-yl)-ethyl]-pyrrolidine-1-carboxylic acid pyridin-3-ylamide], in that order: 5000 nM and 7000 nM.
As to `O=C(Nc1cnccc1Cl)N1CCC(CCOc2ccccc2)C1` (stereo not shown) [Example 57, 3-(2-Phenoxy-ethyl)-pyrrolidine-1-carboxylic acid (4-chloropyridin-3-yl)-amide], the IC50 at FAAH is 3000 nM; on rat FAAH it was more than 10000 nM.
For the molecule `O=C(Nc1cnc2[nH]ccc2c1)N1CC(CCOc2cccc(Oc3ccc(Cl)cc3)c2)C1` [Example 40, 3-{2-[3-(4-Chloro-phenoxy)-phenoxy]-ethyl}-azetidine-1-carboxylic acid (1H-pyrrolo[2,3-b]pyridin-5-yl)-amide], the values for the IC50 on FAAH and at rat FAAH were 3 nM and 4 nM, respectively.
Regarding `O=C(Nc1cnccc1Cl)N1CCC(CCOc2ccc(Cl)c(Cl)c2)C1` (stereo not shown) [Example 58, 3-[2-(3,4-Dichloro-phenoxy)-ethyl]-pyrrolidine-1-carboxylic acid (4-chloro-pyridin-3-yl)-amide], the 50% inhibitory concentration (IC50) on FAAH was 300 nM; against rat FAAH, 700 nM.
For `O=C(Nc1cccnc1)N1CC(COc2cccc(Oc3ccc(OC(F)(F)F)cc3)c2)C1` [Example 25, 3-[3-(4-Trifluoromethoxy-phenoxy)-phenoxymethyl]-azetidine-1-carboxylic acid pyridin-3-ylamide], in that order: 50 nM and 230 nM.
For `O=C(Nc1cccnc1)N1CCC(Cc2cccc(Oc3ccc(F)cc3)c2)C1` (stereo not shown) [Example 74, 3-[3-(4-Fluoro-phenoxy)-benzyl]-pyrrolidine-1-carboxylic acid pyridin-3-ylamide], in that order: 1200 nM and 1100 nM.
For `O=C(Nc1cccnc1)N1CC(CCOc2ccc(Cl)c(Cl)c2)C1` [Example 34, 3-[2-(3,4-Dichloro-phenoxy)-ethyl]-azetidine-1-carboxylic acid pyridin-3-ylamide], in that order: 30 nM and 54 nM.
Consider `O=C(Nc1cccnc1)N1CC(CCOc2cccc(OC(F)(F)F)c2)C1` [Example 31, 3-[2-(3-Trifluoromethoxy-phenoxy)-ethyl]-azetidine-1-carboxylic acid pyridin-3-ylamide], for which the IC50 was determined as 3000 nM against FAAH and 900 nM against rat FAAH.
For `O=C(Nc1cnccc1Cl)N1CC[C@H](COc2cccc(Oc3ccc(Cl)cc3)c2)C1` [Example 55, (3S)-3-[3-(4-Chloro-phenoxy)-phenoxymethyl]-pyrrolidine-1-carboxylic acid (4-chloro-pyridin-3-yl)-amide], in that order: 16 nM and 6 nM.
For `O=C(Nc1cccnc1)N1CC(CCOc2cccc(Oc3ccc(OC(F)(F)F)cc3)c2)C1` [Example 29, 3-{2-[3-(4-Trifluoromethoxy-phenoxy)-phenoxy]-ethyl}-azetidine-1-carboxylic acid pyridin-3-ylamide], in that order: 53 nM and 400 nM.
For `O=C(Nc1cccnc1)N1CC(COc2ccc3cccnc3c2)C1` [Example 14, 3-(Quinolin-7-yloxymethyl)-azetidine-1-carboxylic acid pyridin-3-ylamide], in that order: more than 10000 nM and more than 10000 nM.

What is called IC50 is the concentration needed to halve the response being measured. Read a high IC50 as weaker potency.
